The text below walks through data of ChEMBL document CHEMBL4813965, “Discovery of CYR715: A novel carboxylic acid-containing soluble guanylate cyclase stimulator” (Bioorg Med Chem Lett, 2021).

Values after ≈ are worked out from the molar mass of the structure shown. Where only a bound is given, the exact number is not on record here.

Data set [1] is described as follows: AUC in rat at 1 mg/kg, po. Format: ADME, organism-based. Also on record: dose 1 mg/kg. Conditions: in vivo.
Data set [2] is described as follows: Solubility of the compound at pH 7.0. It counts as physicochemical. As to conditions: buffer.
Data set [3] can be described thus: Apparent permeability across apical to basolateral side of dog MDR1-MDCK2 cells. It counts as ADME, cell-based, Canis lupus familiaris, MDCK-II. As to conditions: MDCK-MDR1.
Data set [4] in a line: Drug metabolism in rat assessed as formation of reactive and migrated acyl glucuronides metabolites. Format: ADME.
A short description of data set [5]: Oral bioavailability in rat at 1 mg/kg. Format: ADME, organism-based. As to conditions: in vivo.

As for `Oc1nc(-c2cc(-c3ccon3)n(Cc3ccccc3F)n2)ncc1F`, the area under the curve (AUC) in data set [1] was determined as 25 µg·h/mL. The compound further registered a solubility in data set [2] of 0.003 mg/mL (≈ 8.44 µM). Further, the Papp A→B in data set [3] is 240 nm/s.
For the compound `C[C@@H]1CCCN(c2nc(-c3cc(-c4ccon4)n(Cc4ccccc4F)n3)ncc2F)[C@@H]1C(=O)O`, the AUC in data set [1] came out at 3.7 µg·h/mL. In data set [2], the concentration in solution (solubility) was 0.021 mg/mL (≈ 43.7 µM). Besides, the Papp A→B in data set [3] came out at 400 nm/s. Moreover, in data set [4], the Drug metabolism result is on record as “Metabolite_Detected”. In data set [5], this compound gave a bioavailability of more than 100%.
Take `O=C(O)C1CCN(c2nc(-c3cc(-c4ccon4)n(Cc4ccccc4F)n3)ncc2F)CC1`: in data set [4], the Drug metabolism entry is reported as “Metabolite_Detected”.
In the case of `C[C@H]1CCCN(c2nc(-c3cc(-c4ccon4)n(Cc4ccccc4F)n3)ncc2F)[C@H]1C(=O)O`, the Drug metabolism result in data set [4] is on record as “Metabolite_Detected”.
For `O=C(O)[C@@H]1CCCCN1c1nc(-c2cc(-c3ccon3)n(Cc3ccccc3F)n2)ncc1F`, the Drug metabolism entry in data set [4] was “Metabolite_Detected”.
On the same count and under the same terms, the value for `O=C(O)[C@H]1CCCCN1c1nc(-c2cc(-c3ccon3)n(Cc3ccccc3F)n2)ncc1F` was “Metabolite_Detected”.
As for `O=C(O)C1CCCN(c2nc(-c3cc(-c4ccon4)n(Cc4ccccc4F)n3)ncc2F)C1` (racemic), the Drug metabolism entry in data set [4] is “Metabolite_Detected”.
